Source: EP3436024B1, “3-BETA-METHOXY-PREG FOR USE IN THE TREATMENT OF TREATMENT RESISTANT DEPRESSION” (Mapreg, priority 2016, dated 2017)

Assays:
Wistar Kyoto (WKY) rats [1] = test: Locomotor activity in the open-field arena, WKY rats; assay type: in vivo, rat; conditions: acute, fluoxetine 10 mg/kg i.p., ketamine 30 mg/kg i.p., 3 min, Fig. 5A
Procedure: (§1) After a 6-day period of acclimatization, all experimental groups received daily successive subcutaneous (250 µl per rat) and intraperitoneal (1 ml/kg) injections. WI rats received injection of vehicle (sesame oil + saline) while WKY rats were randomly assigned to […], as follow: KWY rats receiving only vehicle (sesame oil + saline) and WKY rats treated with MAP4343 (10 mg/kg, s.c.; rats received in parallel i.p. injections of saline), fluoxetine (10 mg/kg i.p., rats received in parallel s.c. injections of sesame oil) or ketamine (30 mg/kg, i.p.; rats received in parallel s.c. injections of sesame oil) (see Figure 3).
(§2) After, a 6-day period of acclimatization, the acute phase of treatment started for 4 days during behavioral tests were performed (Figure 3). All animals were injected 1h30 before the starting of behavioral test.
(§3) The animals were individually placed in the open field arena (OFA) (70 x 100 x 70 cm), with a central square (35 x 50 cm), located in a 50 lux illuminated room and videotaped during 3 min using a computerized system (VideoTrack V2.5, ViewPoint, Lyon, France).
(§4) OFA allows firstly the evaluation of total locomotor activity (LMA) thereby measuring the total distance travelled in the arena (in cm). Secondly, measurements of the activity in the center of the arena like (i) the number of entries in the center of arena and (ii) the total time spent in the center of arena (in sec) provide cues of anxiety-like behavior (Prut and Belzung, 2003). All these behavioral parameters were instantaneously measured automatically with the VideoTrack V2.5 software from the videos.

Wistar Kyoto (WKY) rats [2] = test: Anxious-like behavior: activity in the central square of the open-field arena, WKY rats; assay type: in vivo, rat; conditions: acute, MAP4343 10 mg/kg s.c., fluoxetine 10 mg/kg i.p., ketamine 30 mg/kg i.p.
Procedure: as §1, §2, §3, §4

Wistar Kyoto (WKY) rats [3] = test: Elevated-plus maze (EPM), WKY rats; assay type: in vivo, rat; conditions: acute, fluoxetine 10 mg/kg, Fig. 5D
Procedure: as §1, §2
We used the elevated-plus maze (EPM) as an assay of anxiety-related behavior in rodents (Walf and Frye, 2007). Rats were initially placed in the center of the plus-maze, consisting of two open arms (50 x 10 cm) and two closed arms (50 x 10 cm enclosed by 40 cm walls), in a 50 lux illuminated room and videotaped during 5 min using a computerized system (VideoTrack V2.5, ViewPoint, Lyon, France). The time spent in the open versus closed arms was blindly measured by two independent experimenters from the recorded video, and the open arm-index was calculated as follow: time in the open arms (sec) / [time in open arms (sec) + time in closed arms (sec)].

Wistar Kyoto (WKY) rats [4] = test: Forced swimming test (FST), WKY rats; assay type: in vivo, rat; conditions: acute administration (4 days), MAP4343 10 mg/kg, fluoxetine 10 mg/kg i.p., ketamine 30 mg/kg i.p., Fig. 6C
Procedure: 3B-methoxy-PREG (also referred to as "MAP4343" in Example 4) was dissolved in sesame oil by sonication using a Sonifer-450 (Branson Ultrasonics Corporation, Danbury, USA) during 1 cycle of 5 pulses in sesame oil. Fluoxetine (Biotrend, Köln, Germany) and Ketamine (Sigma-Aldrich, St-Quentin Fallvier, France) were dissolved in sterile saline solution (NaCl 0.9%). The drug formulations were prepared freshly each day of treatment. MAP4343 was administered subcutaneously (ranging of 1-15 mg/Kg/day) while fluoxetine and ketamine were injected intraperitonealy (10 mg/Kg/day and 30 mg/Kg/day, respectively).
After a 6-day period of acclimatization, all experimental groups received daily successive subcutaneous (250 µl per rat) and intraperitoneal (1 ml/kg) injections. […]
Rats were submitted to the forced swimming test (FST), according the procedure initially described by (Detke et al., 1995) and slightly modified by (Bianchi et al., 2002). […] The pre-test and test sessions were recorded using a video camera placed above the cylinder for subsequent behavioral analysis. The immobility time (in sec) was blindly measured by two independent experimenters from recorded videos. […]
The effects of a dose-ranging administration of MAP4343 were tested in WI and WKY rats on their immobility time measured in FST.

[5] = Body weight of treated WKY rats; assay type: in vivo; conditions: fluoxetine 10 mg/kg i.p., 4 days

CNCCC(Oc1ccc(C(F)(F)F)cc1)c1ccccc1 (centres unmarked) [fluoxetine]
locomotor activity (total distance travelled in the open-field arena), change as compared to WKY receiving vehicle (Wistar Kyoto (WKY) rats [1]; MAP4343 10 mg/kg s.c.): -45% | locomotor activity (total distance travelled in the open-field arena), change as compared to MAP4343-treated WKY (Wistar Kyoto (WKY) rats [1]): -52% | number of entries in the central square of OFA, change as compared to WKY receiving only vehicle (Wistar Kyoto (WKY) rats [2]; Fig. 5B): failed to significantly modify | time spent in the center of open-field, change as compared to WKY receiving vehicle (Wistar Kyoto (WKY) rats [2]; Fig. 5C): did not induce any significant change | open-arm (OA) index, change when compared to WKY receiving vehicle alone (Wistar Kyoto (WKY) rats [3]; MAP4343 10 mg/kg s.c., ketamine 30 mg/kg i.p.): -84% | open-arm (OA) index, change when compared to MAP4343-treated WKY (Wistar Kyoto (WKY) rats [3]): -95% | immobility time measured in FST, change when compared to WKY rats receiving vehicle alone (Wistar Kyoto (WKY) rats [4]): +29% | body weight [5]: reduced body weight
